Laboratory results from patent US8895504B2, “Amylin derivatives” (priority 2008, dated 2014).
*1 amine or outer side, *2 acyl side, *3 side chain or, on linkers, in order; H or OH if unused. Where a SMILES comes first, the peptide text is derived from it. Bridges are numbered along the chain shown (N, C = ends). The star is where a group is joined. C20 diacid = O=C(O)CCCCCCCCCCCCCCCCCCC(=O)*; C18 diacid = O=C(O)CCCCCCCCCCCCCCCCC(=O)*; γGlu = O=C(O)[C@H](CCC(=O)[*:2])N[*:1]; AEEA = NCCOCCOCC(=O)O

Legend:
[1] = target: T1, Amylin 3(a) receptor (human calcitonin receptor (CTa) and RAMP-3) (Homo sapiens, UniProt O60896+P30988); assay: Luciferase assay (III), BHK Amylin 3(a)//CRE-luc cells; type: cell-based; settings: BHK cells with Amylin 3(a) receptor and CRE luciferase reporter, 4 hours incubation; read-out: Potency Luciferase
T1 construct: expressed in transfected cells; host or cells: BHK570 cells, stably transfected with a CRE-luciferase reporter
How it was run: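 BHK570 cells stably expressing CTa, RAMP-3 and a CRE-luciferase reporter, seeded at about 20,000 cells/well and grown overnight. Cells were exposed to standard or sample for 4 h at 37° C in phenol red-free DMEM with 10% FBS and 10 mM Hepes, pH 7,4. Luminescence was read after 30 min LucLite at room temperature.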

[2] = Assay (V) PK - determination of T½ in mini-pig; type: in vivo; settings: minipig, sc; terminal plasma half-life, subcutaneous, approx 2 nmol/kg, male Göttingen mini-pigs
How it was run: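 Male Göttingen mini-pigs (5–12 months, 7–35 kg) got a single s.c. neck injection of approx 2 nmol/kg; plasma sampled via central venous catheter predose to 240 h (some to 288 h). Amylin measured by sandwich ELISA; T½ = ln 2/λz from non-compartmental analysis of individual profiles.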

food intake = assay: Pharmacological Assay (I) - efficacy testing on appetite, ad libitum fed rat model; type: in vivo, Sprague Dawley (SD) rats; settings: 30 nmol/kg vs vehicle, ad libitum fed rats, n=5-7, 0-48 hours
Source text: Assays Pharmacological Assay (I)—Experimental Protocol for Efficacy Testing on Appetite with an Amylin Derivative, Using an Ad Libitum Fed Rat Model. Sprague Dawley (SD) rats from Taconic Europe, Denmark are used for the experiments. The rats have a body weight 200-250 g at the start of experiment. The rats arrive at least 10-14 days before start of experiment to allow acclimatization to experimental settings. During this period the animals are handled at least 2 times. After arrival rats are housed individually for one week in a reversed light/dark phase (meaning that lights are off during daytime and on during nighttime) for two weeks. Since rats are normally active and eat their major part of their daily food intake during the dark period, rats are dosed in the morning right before lights are turned off. This set-up results in the lowest data variation and highest test sensitivity. The experiment is conducted in the rats' home cages and rats have free access to food and water throughout the acclimatization period and the experiment period. Each dose of derivative is tested in a group of 5-8 rats. A vehicle group of 6-8 rats is included in each set of testing. Rats are dosed once according to body weight with a 0.01-3 mg/kg solution administered intraperitoneally (ip), orally (po) or subcutaneously (sc). The time of dosing is recorded for each group. After dosing, the rats are returned to their home cages, where they then have access to food and water. The food consumption is recorded individually continuously by on-line registration or manually every hour for 7 hours, and then after 24 h and sometimes 48 h. At the end of the experimental session, the animals are euthanized. The individual data are recorded in Microsoft excel sheets. Outliers are excluded after applying the Grubbs statistical evaluation test for outliers, and the result is presented graphically using the GraphPad Prism program.

T1 sequence (O60896 24-148): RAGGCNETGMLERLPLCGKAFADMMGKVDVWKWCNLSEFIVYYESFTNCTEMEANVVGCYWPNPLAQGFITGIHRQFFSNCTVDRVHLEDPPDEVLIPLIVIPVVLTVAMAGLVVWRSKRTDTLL
T1 sequence (P30988 25-474): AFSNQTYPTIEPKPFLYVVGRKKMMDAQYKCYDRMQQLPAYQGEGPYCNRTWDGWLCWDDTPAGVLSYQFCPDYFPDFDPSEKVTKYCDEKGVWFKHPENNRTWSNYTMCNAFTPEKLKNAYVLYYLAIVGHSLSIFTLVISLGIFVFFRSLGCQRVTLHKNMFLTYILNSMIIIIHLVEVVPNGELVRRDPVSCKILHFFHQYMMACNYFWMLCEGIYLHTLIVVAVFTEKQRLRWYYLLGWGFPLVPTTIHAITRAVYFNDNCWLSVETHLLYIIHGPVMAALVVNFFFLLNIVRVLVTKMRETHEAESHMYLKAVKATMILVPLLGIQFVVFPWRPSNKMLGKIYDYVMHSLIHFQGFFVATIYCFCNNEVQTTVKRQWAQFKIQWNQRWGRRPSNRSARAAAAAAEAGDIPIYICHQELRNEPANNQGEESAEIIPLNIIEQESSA

EC50 [1] [nM]	half-life [2] [h]	SMILES	food intake over a period of 48 hours (food intake)
0.1	64	CC[C@H](C)[C@H](NC(=O)[C@@H]1CCCN1C(=O)CNC(=O)[C@H](Cc1ccccc1)NC(=O)[C@H](CC(N)=O)NC(=O)[C@H](CC(N)=O)NC(=O)[C@H](CO)NC(=O)[C@H](CO)NC(=O)[C@H](Cc1c[nH]cn1)NC(=O)[C@H](Cc1c[nH]cn1)NC(=O)[C@H](CC(C)C)NC(=O)[C@H](Cc1ccccc1)NC(=O)[C@H](CC(N)=O)NC(=O)[C@H](C)NC(=O)[C@H](CC(C)C)NC(=O)[C@H](CCCNC(=N)N)NC(=O)[C@H](CCC(N)=O)NC(=O)[C@@H](NC(=O)[C@H](C)NC(=O)[C@@H]1CSSC[C@H](NC(=O)[C@H](Cc2c[nH]cn2)NC(=O)[C@H](Cc2c[nH]cn2)NC(=O)CC[C@H](NC(=O)CCCCCCCCCCCCCCCCCCC(=O)O)C(=O)O)C(=O)N[C@@H](CC(N)=O)C(=O)N[C@@H]([C@@H](C)O)C(=O)N[C@@H](C)C(=O)N[C@@H]([C@@H](C)O)C(=O)N1)[C@@H](C)O)C(=O)N[C@@H](CC(C)C)C(=O)N1CCC[C@H]1C(=O)N1CCC[C@H]1C(=O)N[C@H](C(=O)N[C@@H](CC(N)=O)C(=O)N[C@H](C(=O)NCC(=O)N[C@@H](CO)C(=O)N[C@@H](CC(N)=O)C(=O)N[C@H](C(=O)N[C@@H](Cc1ccc(O)cc1)C(N)=O)[C@@H](C)O)C(C)C)[C@@H](C)O [Example 27, N-alpha-[(S)-4-Carboxy-4-(19-carboxynonadecanoylamino)butyryl]-His-[His1,His17]-pramlintide] ({C20 diacid-γGlu}-HHCNTATCATQRLANFLHHSSNNFGPILPPTNVGSNTY-NH2; disulfide 3-8)	effectively reducing food intake
0.2	30	CC[C@H](C)[C@H](NC(=O)[C@@H]1CCCN1C(=O)CNC(=O)[C@H](Cc1ccccc1)NC(=O)[C@H](CC(N)=O)NC(=O)[C@H](CC(N)=O)NC(=O)[C@H](CO)NC(=O)[C@H](CO)NC(=O)[C@H](CCCNC(=N)N)NC(=O)[C@H](Cc1c[nH]cn1)NC(=O)[C@H](CC(C)C)NC(=O)[C@H](Cc1ccccc1)NC(=O)[C@H](CC(N)=O)NC(=O)[C@H](C)NC(=O)[C@H](CC(C)C)NC(=O)[C@H](CCCNC(=N)N)NC(=O)[C@H](CCC(N)=O)NC(=O)[C@@H](NC(=O)[C@H](C)NC(=O)[C@@H]1CSSC[C@H](NC(=O)[C@H](Cc2c[nH]cn2)NC(=O)[C@H](Cc2c[nH]cn2)NC(=O)CC[C@H](NC(=O)CCCCCCCCCCCCCCCCCCC(=O)O)C(=O)O)C(=O)N[C@@H](CC(N)=O)C(=O)N[C@@H]([C@@H](C)O)C(=O)N[C@@H](C)C(=O)N[C@@H]([C@@H](C)O)C(=O)N1)[C@@H](C)O)C(=O)N[C@@H](CC(C)C)C(=O)N1CCC[C@H]1C(=O)N1CCC[C@H]1C(=O)N[C@H](C(=O)N[C@@H](CC(N)=O)C(=O)N[C@H](C(=O)NCC(=O)N[C@@H](CO)C(=O)N[C@@H](CC(N)=O)C(=O)N[C@H](C(=O)N[C@@H](Cc1ccc(O)cc1)C(N)=O)[C@@H](C)O)C(C)C)[C@@H](C)O [Example 47, N-alpha-[(S)-4-Carboxy-4-(19-carboxynonadecanoylamino)butyryl]-His-[His1,His17,Arg18]-pramlintide] ({C20 diacid-γGlu}-HHCNTATCATQRLANFLHRSSNNFGPILPPTNVGSNTY-NH2; disulfide 3-8)	effectively reducing food intake
0.02	41	CC[C@H](C)[C@H](NC(=O)[C@@H]1CCCN1C(=O)CNC(=O)[C@H](Cc1ccccc1)NC(=O)[C@H](CC(N)=O)NC(=O)[C@H](CC(N)=O)NC(=O)[C@H](CO)NC(=O)[C@H](CO)NC(=O)[C@H](Cc1c[nH]cn1)NC(=O)[C@H](Cc1c[nH]cn1)NC(=O)[C@H](CC(C)C)NC(=O)[C@H](Cc1ccccc1)NC(=O)[C@H](CC(N)=O)NC(=O)[C@H](C)NC(=O)[C@H](CC(C)C)NC(=O)[C@H](CCCNC(=N)N)NC(=O)[C@H](CCC(N)=O)NC(=O)[C@@H](NC(=O)[C@H](C)NC(=O)[C@@H]1CSSC[C@H](NC(=O)[C@H](Cc2c[nH]cn2)NC(=O)[C@H](Cc2c[nH]cn2)NC(=O)CC[C@H](NC(=O)CCCCCCCCCCCCCCCCC(=O)O)C(=O)O)C(=O)N[C@@H](CC(N)=O)C(=O)N[C@@H]([C@@H](C)O)C(=O)N[C@@H](C)C(=O)N[C@@H]([C@@H](C)O)C(=O)N1)[C@@H](C)O)C(=O)N[C@@H](CC(C)C)C(=O)N1CCC[C@H]1C(=O)N1CCC[C@H]1C(=O)N[C@H](C(=O)N[C@@H](CC(N)=O)C(=O)N[C@H](C(=O)NCC(=O)N[C@@H](CO)C(=O)N[C@@H](CC(N)=O)C(=O)N[C@H](C(=O)N[C@@H](Cc1ccc(O)cc1)C(N)=O)[C@@H](C)O)C(C)C)[C@@H](C)O [Example 31, N-alpha-[(S)-4-Carboxy-4-(17-carboxyheptadecanoylamino)butyryl]-His-[His1,His17]-pramlintide] ({C18 diacid-γGlu}-HHCNTATCATQRLANFLHHSSNNFGPILPPTNVGSNTY-NH2; disulfide 3-8)	effectively reducing food intake
0.1	–	CC[C@H](C)[C@H](NC(=O)[C@@H]1CCCN1C(=O)CNC(=O)[C@H](Cc1ccccc1)NC(=O)[C@H](CC(N)=O)NC(=O)[C@H](CC(N)=O)NC(=O)[C@H](CO)NC(=O)[C@H](CO)NC(=O)[C@H](Cc1c[nH]cn1)NC(=O)[C@H](Cc1c[nH]cn1)NC(=O)[C@H](CC(C)C)NC(=O)[C@H](Cc1ccccc1)NC(=O)[C@H](CC(N)=O)NC(=O)[C@H](C)NC(=O)[C@H](CC(C)C)NC(=O)[C@H](CCCNC(=N)N)NC(=O)[C@H](CCC(N)=O)NC(=O)[C@@H](NC(=O)[C@H](C)NC(=O)[C@@H]1CSSC[C@H](NC(=O)[C@H](Cc2c[nH]cn2)NC(=O)[C@H](Cc2c[nH]cn2)NC(=O)COCCOCCNC(=O)CC[C@H](NC(=O)CCCCCCCCCCCCCCCCCCC(=O)O)C(=O)O)C(=O)N[C@@H](CC(N)=O)C(=O)N[C@@H]([C@@H](C)O)C(=O)N[C@@H](C)C(=O)N[C@@H]([C@@H](C)O)C(=O)N1)[C@@H](C)O)C(=O)N[C@@H](CC(C)C)C(=O)N1CCC[C@H]1C(=O)N1CCC[C@H]1C(=O)N[C@H](C(=O)N[C@@H](CC(N)=O)C(=O)N[C@H](C(=O)NCC(=O)N[C@@H](CO)C(=O)N[C@@H](CC(N)=O)C(=O)N[C@H](C(=O)N[C@@H](Cc1ccc(O)cc1)C(N)=O)[C@@H](C)O)C(C)C)[C@@H](C)O [Example 38, N-alpha-[2-(2-{2-[4-(S)-Carboxy-4-(19-carboxynonadecanoylamino)butyrylamino]ethoxy}ethoxy)acetyl]-His-[His1,His17]-pramlintide] ({C20 diacid-γGlu-AEEA}-HHCNTATCATQRLANFLHHSSNNFGPILPPTNVGSNTY-NH2; disulfide 3-8)	effectively reducing food intake
